Laboratory results published in patent publication US20140155389A1, “BICYCLIC INHIBITORS OF ALK” (ABBVIE INC., priority 2011, published 2014).

What follows are compounds tested against T1, ALK (Homo sapiens, UniProt Q9UM73) (assay: ALK kinase assay (HTRF)). Details: apparent Ki from IC50 by Cheng-Prusoff; ALK (Millipore) 3 nM or 4 nM, 50 μM ATP, 1 h at room temperature; read-out: HTRF_ALK Human - Ki.
T1 construct: purchased Millipore
Format: biochemical

T1 sequence (Q9UM73 19-1620): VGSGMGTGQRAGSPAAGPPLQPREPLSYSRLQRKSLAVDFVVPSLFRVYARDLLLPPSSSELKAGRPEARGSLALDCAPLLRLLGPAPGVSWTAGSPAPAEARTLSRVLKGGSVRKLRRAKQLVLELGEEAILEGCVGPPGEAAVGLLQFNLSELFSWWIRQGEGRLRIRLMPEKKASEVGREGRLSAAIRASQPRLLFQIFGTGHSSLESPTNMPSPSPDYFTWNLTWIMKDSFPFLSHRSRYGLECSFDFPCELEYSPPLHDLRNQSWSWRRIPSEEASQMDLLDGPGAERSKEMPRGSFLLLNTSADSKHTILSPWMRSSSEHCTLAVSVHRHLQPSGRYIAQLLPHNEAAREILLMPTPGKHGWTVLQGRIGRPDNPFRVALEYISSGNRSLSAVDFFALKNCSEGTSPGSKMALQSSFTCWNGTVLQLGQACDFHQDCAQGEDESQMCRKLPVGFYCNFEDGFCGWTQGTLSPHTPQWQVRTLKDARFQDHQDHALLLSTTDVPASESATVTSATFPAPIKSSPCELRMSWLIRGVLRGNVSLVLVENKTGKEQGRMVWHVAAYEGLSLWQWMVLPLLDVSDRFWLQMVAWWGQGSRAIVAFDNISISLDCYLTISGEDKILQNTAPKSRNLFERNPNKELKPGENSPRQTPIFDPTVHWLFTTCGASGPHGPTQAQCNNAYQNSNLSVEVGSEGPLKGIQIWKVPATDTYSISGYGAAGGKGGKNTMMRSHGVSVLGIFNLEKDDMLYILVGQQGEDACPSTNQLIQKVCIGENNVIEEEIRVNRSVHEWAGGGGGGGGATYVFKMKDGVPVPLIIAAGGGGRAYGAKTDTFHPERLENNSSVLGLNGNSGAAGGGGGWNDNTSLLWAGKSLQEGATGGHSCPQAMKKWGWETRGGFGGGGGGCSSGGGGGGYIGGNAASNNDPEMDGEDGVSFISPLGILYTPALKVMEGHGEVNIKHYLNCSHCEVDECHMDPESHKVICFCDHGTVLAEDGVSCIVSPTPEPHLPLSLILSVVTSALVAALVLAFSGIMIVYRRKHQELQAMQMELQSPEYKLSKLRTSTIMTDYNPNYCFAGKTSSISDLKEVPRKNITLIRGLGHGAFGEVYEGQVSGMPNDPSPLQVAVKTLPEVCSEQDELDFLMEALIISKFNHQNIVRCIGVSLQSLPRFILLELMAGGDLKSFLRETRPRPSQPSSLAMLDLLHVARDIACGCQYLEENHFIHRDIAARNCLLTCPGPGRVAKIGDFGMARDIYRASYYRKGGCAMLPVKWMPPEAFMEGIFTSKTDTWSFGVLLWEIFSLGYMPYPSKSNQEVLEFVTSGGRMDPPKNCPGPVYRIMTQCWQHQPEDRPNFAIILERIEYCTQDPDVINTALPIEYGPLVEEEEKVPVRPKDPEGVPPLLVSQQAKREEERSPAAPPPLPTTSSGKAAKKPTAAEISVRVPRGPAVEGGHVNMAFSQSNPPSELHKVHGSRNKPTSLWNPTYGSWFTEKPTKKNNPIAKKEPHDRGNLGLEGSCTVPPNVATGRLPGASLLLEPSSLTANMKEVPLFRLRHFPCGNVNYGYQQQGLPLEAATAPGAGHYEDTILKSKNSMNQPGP

Row | Compound | Ki [nM]
1 | COc1cc(C2CCNCC2)ccc1Nc1cc(Cc2cc(F)ccc2F)nc2cn[nH]c(=O)c12 [Example 110, 2-(2,5-difluorobenzyl)-4-{[2-methoxy-4-(piperidin-4-yl)phenyl]amino}pyrido[2,3-d]pyridazin-5(6H)-one] | 16
2 | COc1cc(C2CCNCC2)ccc1Nc1cc(Cc2cccc(F)c2F)nc2cn[nH]c(=O)c12 [Example 111, 2-(2,3-difluorobenzyl)-4-{[2-methoxy-4-(piperidin-4-yl)phenyl]amino}pyrido[2,3-d]pyridazin-5(6H)-one] | 15
3 | COc1cc(C2CCNCC2)ccc1Nc1cc(Cc2c(F)cccc2Cl)nc2cn[nH]c(=O)c12 [Example 112, 2-(2-chloro-6-fluorobenzyl)-4-{[2-methoxy-4-(piperidin-4-yl)phenyl]amino}pyrido[2,3-d]pyridazin-5(6H)-one] | 4
4 | COc1ccccc1Nc1nc(Nc2ccc(N3CCNCC3)cc2)cc2cnnc(O)c12 [Example 113, 5-[(2-methoxyphenyl)amino]-7-{[4-(piperazin-1-yl)phenyl]amino}pyrido[3,4-d]pyridazin-4-ol] | 58
5 | CCOc1cc(N2CCNCC2)ccc1Nc1nc(Oc2ccccc2Cl)cc2cnnc(O)c12 [Example 114, 7-(2-chlorophenoxy)-5-{[2-ethoxy-4-(piperazin-1-yl)phenyl]amino}pyrido[3,4-d]pyridazin-4-ol] | 8
6 | COc1cc(N2CCNCC2)ccc1Nc1nc(Oc2ccccc2C#N)cc2cn[nH]c(=O)c12 [Example 115, 2-[(5-{[2-methoxy-4-(piperazin-1-yl)phenyl]amino}-4-oxo-3,4-dihydropyrido[3,4-d]pyridazin-7-yl)oxy]benzonitrile] | 6
7 | COc1cc(CN2CCN(C)CC2)ccc1Nc1cc(Cc2ccccc2Cl)nc2cn[nH]c(=O)c12 [Example 116, 2-(2-chlorobenzyl)-4-({2-methoxy-4-[(4-methylpiperazin-1-yl)methyl]phenyl}amino)pyrido[2,3-d]pyridazin-5(6H)-one] | 33
8 | O=c1[nH]ncc2cc(Oc3ccccc3Cl)nc(Nc3ccc(N4CCNCC4)cc3OC(F)F)c12 [Example 117, 7-(2-chlorophenoxy)-5-{[2-(difluoromethoxy)-4-(piperazin-1-yl)phenyl]amino}pyrido[3,4-d]pyridazin-4(3H)-one] | 15
9 | O=c1[nH]ncc2cc(Oc3ccccc3Cl)nc(Nc3ccc(C4CCNCC4)cn3)c12 [Example 118, 7-(2-chlorophenoxy)-5-{[5-(piperidin-4-yl)pyridin-2-yl]amino}pyrido[3,4-d]pyridazin-4(3H)-one] | 15
10 | COc1cc(N2CCNCC2)ccc1Nc1nc(Oc2ccccc2Cl)cc2c(C)nnc(O)c12 [Example 119, 7-(2-chlorophenoxy)-5-{[2-methoxy-4-(piperazin-1-yl)phenyl]amino}-1-methylpyrido[3,4-d]pyridazin-4-ol] | 15
11 | N#Cc1cc(N2CCNCC2)ccc1Nc1nc(Oc2ccccc2Cl)cc2cnnc(O)c12 [Example 120, 2-{[7-(2-chlorophenoxy)-4-hydroxypyrido[3,4-d]pyridazin-5-yl]amino}-5-(piperazin-1-yl)benzonitrile] | 2
